# Experimental data taken from US20090018150A1, “5-Ht2b Receptor Antagonists” (ASTERAND UK LIMITED, priority 2003, published 2009).
# Counter-ions that a name gives are not always drawn.
# Key:
# [1] = target: T1, human cloned 5-HT2B receptors (Homo sapiens, UniProt P41595); experiment: Human cloned 5-HT2B receptor binding assay; conditions: [3H]LSD (1 nM) displacement, membranes of CHO-K1 cells expressing cloned 5-HT2B receptor; read-out: 5-HT2B pKi (converted)
# T1 construct: expressed in transfected cells; host or cells: CHO-K1
# T1 sequence (P41595 whole entry): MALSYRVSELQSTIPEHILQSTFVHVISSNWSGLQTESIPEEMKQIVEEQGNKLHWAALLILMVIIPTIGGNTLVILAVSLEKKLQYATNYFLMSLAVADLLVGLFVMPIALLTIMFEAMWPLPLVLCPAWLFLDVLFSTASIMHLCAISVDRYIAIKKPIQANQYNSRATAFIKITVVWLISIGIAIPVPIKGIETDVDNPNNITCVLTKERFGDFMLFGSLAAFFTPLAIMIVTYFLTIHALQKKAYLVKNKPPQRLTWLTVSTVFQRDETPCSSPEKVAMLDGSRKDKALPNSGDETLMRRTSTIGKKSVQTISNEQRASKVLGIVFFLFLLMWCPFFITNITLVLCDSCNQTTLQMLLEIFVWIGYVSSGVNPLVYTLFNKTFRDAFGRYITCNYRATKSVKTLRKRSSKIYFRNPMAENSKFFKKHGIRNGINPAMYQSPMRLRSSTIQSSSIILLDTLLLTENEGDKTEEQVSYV
# Procedure: The binding affinity of the compounds for human cloned 5-HT2B receptors was determined using the following assay.
# CHO-K1 cells expressing cloned 5-HT2B receptor were maintained in Ultra-CHO medium containing 400 μg/ml of G418, 100 U/ml penicillin, 100 μg/ml streptomycin, 2.5 μg/ml fungizone and 1-foetal bovine serum, in 95/5% O2/CO2 at 37° C. The cells were harvested using 0.25% trypsin and were centrifuged at 800 rpm for 8 minutes. The cells were homogenised in 50 mM HEPES buffer containing 1 mM disodium EDTA and 1 mM PMSF at pH 7.4, using a Dounce homogeniser (20 strokes). The homogenate was centrifuged at 2280 rpm (1000 g) and 4° C. for 10 minutes, after which the supernatant was removed by decanting. The pellet was re-homogenised as above, and the resulting supernatant removed and combined with that already obtained. The supernatant solution was then centrifuged at 18300 rpm (40000 g) for 10 minutes at 4° C. using a Sorvall centrifuge. The supernatant was removed, and the pellet was re-suspended in 50 mM buffer at pH 7.4 using a Ultra-turrax T25 Polytron, before centrifugation again at 40000 g as above. This wash procedure was repeated, after which the membrane preparation was stored at a concentration of 1 mg/ml at −80° C. until use.
# The membranes were thawed rapidly and diluted in assay buffer containing Tris-HCl (50 mM, pH 7.4), ascorbic acid (0.1°) and calcium chloride (4 mM). The membranes were homogenised to resuspend them, prior to adding 10 or 15 μg of membranes to assay wells containing [^3H]LSD (1 nM), assay buffer (50 mM Tris, 4 mM calcium chloride and 0.1° ascorbic acid) containing pargyline (10 μM), and the test compounds (1×10^−10 to 1×10^−4M). Non specific binding was determined in the presence of 100 μM 5-HT. After 30 minutes incubation at 37° C., the assay mixture was filtered through a combination of GF-C and GF-B filters, pre-soaked in 1% polyethyleneimine, using a Brandel cell harvester, and were washed three times using 50 mM Tris-HCl. Radioactivity retained on the filters was determined by liquid scintillation counting. For each test compound, the concentration that inhibited binding of [^3H]LSD by 50% was determined using curve fitting software (Prism). Kd values (concentration of LSD required to occupy 50% of the receptor binding sites at equilibrium) determined from saturation binding studies were then used to calculate inhibition dissociation constants (Ki) using the following equation: […]
# This approach follows that set out in Kenakin, T. P. Pharmacologic analysis of drug-receptor interaction. Raven Press, New York, 2nd Edition.
# [2] = target: T2, cloned human 5-HT2A receptor (Homo sapiens, UniProt P28223); experiment: Human 5-HT2A receptor binding assay; conditions: [3H]ketanserin (1 nM) displacement, CHO-K1 cell membranes; read-out: 5-HT2A pKi (converted)
# T2 construct: purchased Euroscreen; host or cells: CHO-K1
# T2 sequence (P28223 whole entry): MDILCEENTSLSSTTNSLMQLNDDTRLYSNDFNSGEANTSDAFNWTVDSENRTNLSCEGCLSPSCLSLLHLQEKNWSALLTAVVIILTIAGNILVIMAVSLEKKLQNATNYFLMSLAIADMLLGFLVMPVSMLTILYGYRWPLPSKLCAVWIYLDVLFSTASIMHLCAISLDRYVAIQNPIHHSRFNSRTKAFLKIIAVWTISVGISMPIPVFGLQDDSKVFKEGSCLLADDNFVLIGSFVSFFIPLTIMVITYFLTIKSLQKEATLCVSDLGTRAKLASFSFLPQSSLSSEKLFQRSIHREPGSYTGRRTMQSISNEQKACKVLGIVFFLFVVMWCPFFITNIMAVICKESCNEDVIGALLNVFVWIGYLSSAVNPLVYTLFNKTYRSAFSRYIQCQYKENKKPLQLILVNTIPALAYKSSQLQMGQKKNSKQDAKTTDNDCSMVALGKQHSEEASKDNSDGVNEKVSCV
# Procedure: (§1) The binding affinity of ligands for human 5-HT2A and 5-HT2C receptors was determined using the following assay.
# Membrane preparations from CHO-K1 cells expressing the cloned human 5-HT2A receptor were obtained (Euroscreen). The membranes were thawed rapidly and diluted in assay buffer containing Tris-HCl (50 mM, pH 7.7). The membranes were resuspended by homogenisation, prior to adding 15 μg of membranes to assay wells containing [3H]ketanserin (1 nM), assay buffer (50 mM Tris at pH 7.4) containing pargyline (10 μM), and test compounds (1×10^−10 to 1×10^−4M). Non specific binding was determined in the presence of 100 μM mianserin. After 15 minutes incubation at 37° C., the assay mixture was filtered through a combination of GF-C and GF-B filters, pre-soaked in 0.05% Brij, using a Brandel cell harvester, and were washed three times using ice cold Tris-HCl buffer (50 mM). Radioactivity retained on the filters was determined by liquid scintillation counting. For each test compound, the concentration that inhibited binding of [^3H]ketanserin by 50% was determined using curve fitting software (Prism). Kd values (concentration of ketanserin required to occupy 50% of the receptor binding sites at equilibrium) determined from saturation binding studies were then used to calculate inhibition dissociation constants (Ki) using the following equation: […]
# [3] = target: T3, cloned human 5-HT2C receptor (Homo sapiens, UniProt P28335); experiment: Human 5-HT2C receptor binding assay; conditions: [3H]mesulergine (1 nM) displacement, CHO-K1 cell membranes; read-out: 5-HT2C pKi (converted)
# T3 construct: purchased Euroscreen; host or cells: CHO-K1
# T3 sequence (P28335 33-458): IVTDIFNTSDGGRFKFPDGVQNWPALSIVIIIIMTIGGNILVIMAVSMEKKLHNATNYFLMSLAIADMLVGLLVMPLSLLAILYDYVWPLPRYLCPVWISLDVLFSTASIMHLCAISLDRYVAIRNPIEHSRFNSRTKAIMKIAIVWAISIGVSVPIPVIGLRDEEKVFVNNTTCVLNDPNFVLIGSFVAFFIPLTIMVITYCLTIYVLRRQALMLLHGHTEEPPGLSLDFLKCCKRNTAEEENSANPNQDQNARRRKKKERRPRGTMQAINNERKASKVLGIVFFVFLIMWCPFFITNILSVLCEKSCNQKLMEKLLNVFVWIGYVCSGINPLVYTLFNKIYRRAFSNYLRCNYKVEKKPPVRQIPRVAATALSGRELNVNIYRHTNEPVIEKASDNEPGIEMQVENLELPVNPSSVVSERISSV
# Procedure: as §1
# Membrane preparations from CHO-K1 cells expressing the cloned human 5-HT2C receptor were obtained (Euroscreen). The membranes were thawed rapidly and diluted in assay buffer containing Tris-HCl (50 mM, pH 7.7), ascorbic acid (0.1%) and pargyline (10 μM). The membranes were resuspended by homogenisation, prior to adding 6 μg of membranes to assay wells containing [^3H]mesulergine (1 nM), assay buffer (50 mM Tris at pH 7.7 and 0.1% ascorbic acid) containing pargyline (10 μM), and test compounds (1×10^−10 to 1×10^−4M). Non specific binding was determined in the presence of 100 μM mianserin. After 30 minutes incubation at 37° C., the assay mixture was filtered through a combination of GF-C and GF-B filters, pre-soaked in 1% bovine serum albumin, using a Brandel cell harvester, and were washed three times using ice cold Tris-HCl buffer (50 mM). Radioactivity retained on the filters was determined by liquid scintillation counting. For each test compound, the concentration that inhibited binding of [^3H]mesulergine by 50% was determined using curve fitting software (Prism). Kd values (concentration of mesulergine required to occupy 50% of the receptor binding sites at equilibrium) determined from saturation binding studies were then used to calculate inhibition dissociation constants (Ki) using the following equation: […]
SMILES,Ki [1],Ki [2],Ki [3]
"Cc1cc(Nc2ccccc2)nc(N)n1 [Compound 2A, N^4-phenyl-6-methyl-pyrimidine-2,4-diamine hydrochloric acid]",< 1000 nM,> 10000 nM,> 1000 nM
"Cc1cc(Nc2cccc(Oc3ccccc3)c2)nc(N)n1 [Compound 2AD, 6-methyl-N^4-(3-phenoxy-phenyl)-pyrimidine-2,4-diamine hydrochloride]",< 1000 nM,> 316 nM,> 1000 nM
"Cc1cc(Nc2cccc(Br)c2)nc(N)n1 [Compound 2AF, N^4-(3-bromo-phenyl)-6-methyl-pyrimidine-2,4-diamine trifluoroacetic acid]",< 1000 nM,> 3160 nM,> 1000 nM
"Cc1cc(Nc2cc(Br)ccc2Br)nc(N)n1 [Compound 2AJ, N^4-(2,5-dibromo-phenyl)-6-methyl-pyrimidine-2,4-diamine trifluoroacetic acid]",< 100 nM,> 1000 nM,> 316 nM
"Cc1cc(Nc2ccc(C)c(I)c2)nc(N)n1 [Compound 2AK, N^4-(3-iodo-4-methyl-phenyl)-6-methyl-pyrimidine-2,4-diamine trifluoroacetic acid]",< 100 nM,,
"Cc1cc(Nc2cccc(F)c2)nc(N)n1 [Compound 2AN, N^4-(3-fluoro-phenyl)-6-methyl-pyrimidine-2,4-diamine]",< 1000 nM,> 10000 nM,> 1000 nM
"Cc1cc(Nc2cc(Br)ccc2C)nc(N)n1 [Compound 2AP, N^4-(5-bromo-2-methyl-phenyl)-6-methyl-pyrimidine-2,4-diamine]",< 1000 nM,> 1000 nM,> 1000 nM
"Cc1cc(Nc2ccc(I)cc2)nc(N)n1 [Compound 2E, N^4-(4-iodo-phenyl)-6-methyl-pyrimidine-2,4-diamine hydrochloride]",< 1000 nM,> 10000 nM,> 316 nM
"Cc1cc(Nc2ccc(Br)cc2)nc(N)n1 [Compound 2F, N^4-(4-bromo-phenyl)-6-methyl-pyrimidine-2,4-diamine hydrochloride]",< 1000 nM,> 10000 nM,> 10000 nM
"Cc1cc(Nc2cccc(C(F)(F)F)c2)nc(N)n1 [Compound 2H, 6-Methyl-N^4-(3-trifluoromethyl-phenyl)-pyrimidine-2,4-diamine, hydrochloride]",< 1000 nM,> 10000 nM,> 1000 nM
"Cc1cc(Nc2ccc(F)cc2)nc(N)n1 [Compound 2I, N^4-(4-fluoro-phenyl)-6-methyl-pyrimidine-2,4-diamine hydrochloride]",< 1000 nM,> 10000 nM,> 1000 nM
"Cc1cc(Nc2ccc(F)c(F)c2)nc(N)n1 [Compound 2M, N^4-(3,4-difluoro-phenyl)-6-methyl-pyrimidine-2,4-diamine hydrochloride]",< 1000 nM,> 1000 nM,> 1000 nM
"Cc1cc(Nc2cc(Br)ccc2O)nc(N)n1 [Compound 2O, 2-(2-amino-6-methyl-pyrimidin-4-ylamino)-4-bromo-phenol hydrochloride]",< 1000 nM,> 1000 nM,> 100 nM
"CC(=O)Nc1nc(-c2cccc(-c3ccccc3)c2)c[nH]1 [Compound 107, N-(4-biphenyl-3-yl-1H-imidazol-2-yl)-acetamide]",< 1000 nM,,
"Cc1cccc(-c2cccc(-c3nc(N)oc3C)c2)c1 [Compound 218B, 5-Methyl-4-(3′-methyl-biphenyl-3-yl)-oxazol-2-ylamine, trifluoroacetic acid]",< 1000 nM,,

# Continued, values first:
Ki [1],Ki [2],Ki [3],SMILES
< 1000 nM,> 1000 nM,> 1000 nM,"Cc1cc(Nc2ccc3ncsc3c2)nc(N)n1 [Compound 2AB, N^4-benzothiazol-6-yl-6-methyl-pyrimidine-2,4-diamine hydrochloride]"
< 1000 nM,> 1000 nM,> 1000 nM,"COc1ccc(Nc2cc(C)nc(N)n2)cc1Cl [Compound 2AC, N^4-(3-chloro-4-methoxy-phenyl)-6-methyl-pyrimidine-2,4-diamine, hydrochloride]"
< 100 nM,> 10000 nM,> 316 nM,"Cc1cc(Nc2ccc(Oc3ccccc3)cc2)nc(N)n1 [Compound 2AE, 6-methyl-N^4-(4-phenoxy-phenyl)-pyrimidine-2,4-diamine hydrochloride]"
< 100 nM,> 3160 nM,> 316 nM,"Cc1cc(Nc2cccc(I)c2)nc(N)n1 [Compound 2G, N^4-(3-iodo-phenyl)-6-methyl-pyrimidine-2,4-diamine hydrochloride]"
< 100 nM,> 10000 nM,> 1000 nM,"Cc1cc(Nc2ccc3c(c2)CCC3)nc(N)n1 [Compound 2J, N^4-indan-5-yl-6-methyl-pyrimidine-2,4-diamine hydrochloride]"
< 1000 nM,> 10000 nM,> 10000 nM,"Cc1cc(Nc2ccc(N3CCOCC3)cc2)nc(N)n1 [Compound 2K, 6-methyl-N^4-(4-morpholin-4-yl-phenyl)-pyrimidine-2,4-diamine hydrochloride]"
< 1000 nM,> 1000 nM,> 1000 nM,"Cc1cc(Nc2ccc(Cl)c(Cl)c2)nc(N)n1 [Compound 2N, N^4-(3,4-dichloro-phenyl)-6-methyl-pyrimidine-2,4-diamine hydrochloride]"
< 100 nM,,,"Cc1cc(Nc2cccc(-c3cccc(O)c3)c2)nc(N)n1 [Compound 10G, 3′-(2-amino-6-methyl-pyrimidin-4-ylamino)-biphenyl-3-ol trifluoroacetic acid]"
< 1000 nM,,,"CC(C)c1cccc(-c2cccc(-c3cnc(N)o3)c2)c1 [Compound 209M, 5-(3′-Isopropyl-biphenyl-3-yl)-oxazol-2-ylamine, trifluoroacetic acid]"
